From publication doi:10.1101/2024.12.25.630315 (bioRxiv, 2024)
Numbered stars: 1 amine (or outer) side, 2 acyl side, 3 side chain; on linkers, the order of the positions; unused ones are H or OH. Bridge positions count the residues as written; N and C are the ends. Square brackets hold non-standard residues; d marks the D form. Primed or numbered codes have the meaning given here. * marks the point of attachment. TATA = O=C(CC[*:1])N1CN(C(=O)CC[*:2])CN(C(=O)CC[*:3])C1; NOTA = O=C(O)CN1CCN(CC(=O)O)CCN(CC(=O)*)CC1; Hyp = O=C(O)[C@@H]1C[C@@H](O)CN1; hArg = N=C(N)NCCCC[C@H](N)C(=O)O; PEG12′ = not defined here

Key:
mouse Nectin-4 = target: T1, mouse Nectin-4 (Mus musculus, UniProt Q8R007); test: Surface plasmon resonance, mouse Nectin-4; format: binding; details: SPR Biacore T200, CM5 chip, 25 °C, His-tagged mouse Nectin-4 captured, PBS-P+1% DMSO, 1:1 kinetics fit; mean±SD n=3
T1 construct: purchased R&D systems 3116-N4–050
T1 sequence (Q8R007 31-347 limits assumed): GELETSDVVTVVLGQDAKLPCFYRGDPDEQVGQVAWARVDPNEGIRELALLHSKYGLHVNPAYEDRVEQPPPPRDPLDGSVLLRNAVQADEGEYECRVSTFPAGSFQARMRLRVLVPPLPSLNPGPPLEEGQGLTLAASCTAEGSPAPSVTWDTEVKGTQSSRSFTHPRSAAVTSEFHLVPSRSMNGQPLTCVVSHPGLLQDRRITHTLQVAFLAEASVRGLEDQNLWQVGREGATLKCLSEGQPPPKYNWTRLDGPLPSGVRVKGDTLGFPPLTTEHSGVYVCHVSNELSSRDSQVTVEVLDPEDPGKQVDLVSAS
Experimental: (§1) The affinity of AJ647 for human and mouse Nectin-4 recombinant proteins were evaluated by SPR. The experiments were conducted using a Biacore T200 instrument with a CM5 chip at 25 °C. The ligands used were His-Tagged human Nectin-4 (R&D systems, catalog # 2659-N4–050, 44 kDa, 0.2 mg/ml stock concentration) and mouse Nectin-4 proteins (R&D systems, catalog # 3116-N4–050, 45 kDa, 0.2 mg/ml stock concentration), which were immobilized onto the CM5 chip. AJ647 (3057.5 Da, 10 mM stock concentration) was used as the analyte, which flowed over the ligand immobilized surface. FC2 and FC4 was used as the experimental flow cell, while FC1 and FC3 served as the reference. Anti-His antibody (1 mg/ml stock concentration) was immobilized on all FCs using standard amine coupling chemistry. […] Human Nectin-4 was captured onto FC2 at a level of ~600 RU, with a 1:20 dilution and 10 μg/ml diluted concentration in PBS-P. Mouse Nectin-4 was captured onto FC4 at a level of 600 RU, with a 1:20 dilution and 10 μg/ml diluted concentration in PBS-P. The theoretical Rmax values were calculated based on the captured response values and are presented in table below, assuming a 1:1 interaction mechanism. […] All association and dissociation kinetics were evaluated by 1:1 kinetics model fitting.

human Nectin-4 = target: T2, human Nectin-4 (Homo sapiens, UniProt Q96NY8); test: Surface plasmon resonance, human Nectin-4; format: binding; details: SPR Biacore T200, CM5 chip, 25 °C, His-tagged human Nectin-4 captured, PBS-P+1% DMSO, 1:1 kinetics fit; mean±SD n=3
T2 construct: purchased R&D systems 2659-N4–050
T2 sequence (Q96NY8 32-349 limits assumed): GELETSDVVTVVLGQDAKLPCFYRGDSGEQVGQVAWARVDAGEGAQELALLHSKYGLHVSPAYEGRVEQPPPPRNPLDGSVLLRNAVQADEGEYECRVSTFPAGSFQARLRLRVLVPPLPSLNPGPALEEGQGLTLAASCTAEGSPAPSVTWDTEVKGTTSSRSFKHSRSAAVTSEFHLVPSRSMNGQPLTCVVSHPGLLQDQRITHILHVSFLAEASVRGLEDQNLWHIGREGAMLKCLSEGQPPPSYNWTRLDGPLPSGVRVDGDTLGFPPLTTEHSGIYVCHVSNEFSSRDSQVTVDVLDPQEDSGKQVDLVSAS
Experimental: as §1

Nectin-4 = details: cited from earlier work
Source text: A PEG linker was attached to the N-terminal cysteine residue of AJ632 (Fig. 2A). The free terminal amine was then conjugated to a NOTA chelator, enabling the successful radiolabeling with gallium-68 to produce [^68Ga]AJ647 and its non-radioactive analog [^natGa]AJ647. The radiolabeling process, performed as previously described ([16]), yielded [^68Ga]AJ647 with an 71.2±9.4% decay-corrected yield and 97±0.8% purity (n=20), ach ...

in vivo = details: male, mouse, iv, 1.85 MBq, total radioactivity
Experimental: All mouse studies were conducted through Johns Hopkins University Animal Care and Use Committee (ACUC) approved protocols. Protocol M021M175 was approved by Chair, ACUC. Xenografts were established in five-to-six-weeks old, male, non-obese, diabetic, severe-combined immunodeficient gamma (NSG) mice obtained from the Johns Hopkins University Immune Compromised Animal Core.
Mice were injected with cancer cells subcutaneously in […] PBS (top right flank) for all tumor models. Following cell numbers were used: HT1376 (4 M), UC9 (3 M), UC14 (3 M), RT112 (1.5 M), T24(3 M), SCaBER (4 M). Mice with tumor volumes of 100–200 mm^3 were used for all experiments. A minimum of 4 mice were used for all biodistribution studies. A minimum of 7 mice were used in pharmacodynamics experiment to account for greater variability.
To validate imaging studies, ex vivo biodistribution studies were conducted in mice with tumors of size 100–200 mm^3. Mice received ~50 μCi (1.85 MBq) of [^68Ga]AJ647 in […] of 5% ethanol in saline intravenously and mice were sacrificed at 5–180 min after [^68Ga]AJ647 injection for pharmacokinetic evaluation (n=4 per timepoint). In all other studies, 60 min time-point was chosen. Selected tissues (Blood, Skin, Muscle, Bone, Salivary glands, Tumor, Lungs, Heart, Liver, Pancreas, Spleen, Kidneys, Bladder, Testicles) were collected, weighed, counted, and their %IA/g values calculated as described previously (PMID: 37793856). For EV pharmacodynamics studies, fewer organs were harvested to accommodate more number of mice.

T24 cells = test: In vitro binding of [^68Ga]AJ647 to T24 cells; format: cell-based; details: ~37 kBq (~1 μCi), 4°C, 1 hour, mean ± SD
Experimental: […] After incubation, cells were washed three times with ice cold PBS containing 0.1% Tween®20 and counted on an automated gamma counter. All cell radioactivity uptake studies were performed in quadruplicate for each cell line and repeated three times.

[1] = format: physicochemical
Experimental: The ^68Ge/^68Ga generator was manually eluted using […] of 0.1M HCl (Ultrapure trace-metal-free) in four different fractions (2.4 mL, 1 mL, 1 mL, and 1.4 mL). […] The reaction mixture was incubated for 12 min at 65 °C in a temperature-controlled heating block and purified on a RP-HPLC system using a semi-preparative C-18 Luna column ([…], 10 × 250 mm Phenomenex, Torrance, CA). The HPLC condition was gradient elution starting with 20% acetonitrile: water (0.1% formic acid) and reaching 60% acetonitrile: water (0.1% formic acid) in 20 min at a flow rate of 5 mL/min. […] The desired radiolabeled fraction was concentrated under a stream of N2 at 60 °C, formulated in 10% EtOH in saline, and used for in vitro and in vivo studies. The whole radiolabeling process was completed in approximately 35 min. Quality control, stability studies, and chemical identity were also performed on the same HPLC system using the same HPLC gradient as described above.

[2] = target: T3, mouse Nectin-4 (recombinant) (mouse, UniProt Q8R007 31-347); test: SPR
T3 chain: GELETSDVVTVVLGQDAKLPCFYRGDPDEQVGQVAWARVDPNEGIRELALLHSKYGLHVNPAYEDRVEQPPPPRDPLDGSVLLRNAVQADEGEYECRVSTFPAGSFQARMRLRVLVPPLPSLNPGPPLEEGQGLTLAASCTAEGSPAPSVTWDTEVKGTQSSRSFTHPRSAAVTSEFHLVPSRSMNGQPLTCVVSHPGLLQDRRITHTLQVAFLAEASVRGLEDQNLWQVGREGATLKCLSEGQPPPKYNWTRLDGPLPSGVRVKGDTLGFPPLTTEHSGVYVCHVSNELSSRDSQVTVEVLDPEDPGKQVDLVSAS

[3] = target: T4, His-Tagged human Nectin-4 (human, UniProt Q96NY8 32-349); test: SPR
T4 chain: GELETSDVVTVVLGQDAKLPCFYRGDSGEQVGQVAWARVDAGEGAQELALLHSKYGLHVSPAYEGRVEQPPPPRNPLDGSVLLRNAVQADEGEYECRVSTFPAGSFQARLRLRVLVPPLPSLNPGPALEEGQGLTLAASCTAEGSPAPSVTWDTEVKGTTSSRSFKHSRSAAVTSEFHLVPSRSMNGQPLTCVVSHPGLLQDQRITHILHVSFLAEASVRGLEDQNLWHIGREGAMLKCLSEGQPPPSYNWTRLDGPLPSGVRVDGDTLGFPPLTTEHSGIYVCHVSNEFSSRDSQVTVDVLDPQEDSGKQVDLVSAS

[4] = target: T5, Nectin-4 on urothelial carcinoma cells (human (endogenous in HT1376, UC14, UC9, …, UniProt Q96NY8 32-510)); test: flow cytometry on cells; competition: HT1376 cells with non-radioactive AJ647 5.4 uM to 0.01 nM for 30 min at 4 °C, washed, then EV-FITC for 30 min at 4 °C; mean fluorescence intensity as percent of 0 nM AJ647; details: one partner purified
T5 construct: Nectin-4, endogenous on the surface of urothelial carcinoma cell lines; also called cell surface Nectin-4; Nectin-4 receptor; source: endogenous, on HT1376, UC14, UC9, RT112 and SCaBER cells (and their xenografts)
T5 sequence (looked up): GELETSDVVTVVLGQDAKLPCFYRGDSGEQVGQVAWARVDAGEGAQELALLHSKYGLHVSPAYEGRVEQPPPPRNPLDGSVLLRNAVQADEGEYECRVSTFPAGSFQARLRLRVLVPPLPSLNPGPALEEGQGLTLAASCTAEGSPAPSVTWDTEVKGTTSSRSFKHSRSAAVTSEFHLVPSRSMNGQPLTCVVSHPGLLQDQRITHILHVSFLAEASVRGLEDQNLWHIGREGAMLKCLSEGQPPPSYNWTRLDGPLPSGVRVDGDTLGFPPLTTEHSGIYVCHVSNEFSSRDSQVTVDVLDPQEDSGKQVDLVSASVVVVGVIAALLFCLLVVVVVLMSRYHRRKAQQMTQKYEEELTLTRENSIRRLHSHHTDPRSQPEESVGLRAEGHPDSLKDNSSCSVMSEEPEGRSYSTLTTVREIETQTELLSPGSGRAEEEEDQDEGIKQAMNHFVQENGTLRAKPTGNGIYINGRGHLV

CSCC[C@@H]1NC(=O)[C@@H]2CSCCC(=O)N3CN(CN(C3)C(=O)CCSC[C@H](NC(=O)CCOCCOCCOCCOCCOCCOCCOCCOCCOCCOCCOCCOCCNC(=O)CN3CCN(CC(=O)O)CCN(CC(=O)O)CC3)C(=O)N3CCC[C@H]3C(=O)N[C@@H](Cc3cccc4ccccc34)C(=O)N[C@@H](CC(=O)O)C(=O)N2)C(=O)CCSC[C@@H](C(N)=O)NC(=O)[C@H](Cc2c[nH]c3ccccc23)NC(=O)[C@@H]2C[C@@H](O)CN2C(=O)[C@@H]2CCCN2C(=O)[C@H]([C@@H](C)O)NC(=O)[C@H](CO)NC(=O)[C@H](Cc2c[nH]c3ccccc23)NC(=O)[C@@H](CC(=O)O)NC(=O)[C@H](CCCCNC(=N)N)NC1=O [[^natGa]AJ647, metal not drawn]
Kd (mouse Nectin-4): 14.1 ± 3.4 nM | Kd (human Nectin-4): 15 ± 10.1 nM

NH2-PEG12-(Cys-Pro-Nal-Asp-Cys-Met-hArg-dAsp-Trp-Ser-Thr-Pro-Hyp-Trp-Cys)-TATA based cyclization (bicyclic or more) [AJ632]
affinity to Nectin-4 (Nectin-4): low nanomolar

CSCC[C@@H]1NC(=O)[C@@H]2CSCCC(=O)N3CN(CN(C3)C(=O)CCSC[C@H](NC(=O)CCOCCOCCOCCOCCOCCOCCOCCOCCOCCOCCOCCOCCNC(=O)CN3CCN(CC(=O)O)CCN(CC(=O)O)CC3)C(=O)N3CCC[C@H]3C(=O)N[C@@H](Cc3cccc4ccccc34)C(=O)N[C@@H](CC(=O)O)C(=O)N2)C(=O)CCSC[C@@H](C(N)=O)NC(=O)[C@H](Cc2c[nH]c3ccccc23)NC(=O)[C@@H]2C[C@@H](O)CN2C(=O)[C@@H]2CCCN2C(=O)[C@H]([C@@H](C)O)NC(=O)[C@H](CO)NC(=O)[C@H](Cc2c[nH]c3ccccc23)NC(=O)[C@@H](CC(=O)O)NC(=O)[C@H](CCCCNC(=N)N)NC1=O [[^68Ga]AJ647, metal not drawn]
tissue to tissue ratio at 0.25 h (in vivo; NSG): 1.31 ± 0.41 | tissue to tissue ratio at 1 h (in vivo; NSG): 4.6 ± 1.07 | tissue uptake at 2 h (in vivo; Adrenals %IA/g): 3.11 ± 0.21 %ID/g | tissue uptake at 3 h (in vivo; Adrenals %IA/g): 3.01 ± 0.27 %ID/g | tissue uptake at 3 h (in vivo; Brain %IA/g): 0.07 ± 0.01 %ID/g | tissue uptake at 3 h (in vivo; Kidney %IA/g): 24.8 ± 8.74 %ID/g | tissue uptake at 1 h (in vivo; Large Intestine %IA/g): 0.25 ± 0.13 %ID/g | tissue uptake at 2 h (in vivo; Large Intestine %IA/g): 0.18 ± 0.06 %ID/g | tissue uptake at 3 h (in vivo; Large Intestine %IA/g): 0.28 ± 0.13 %ID/g | tissue uptake at 1 h (in vivo; Testicles %IA/g): 0.71 ± 0.24 %ID/g | [^68Ga]AJ647 binding (percent incubated activity) (T24 cells): 0.2±0.11 %IA | stability of [^68Ga]AJ647 confirmed [1]: up to 3 hours

{NOTA-PEG12′}-CP[Nal]DCM[hArg][dD]WSTP[Hyp]WC-NH2 (linker 1-5-15 via TATA; also: natGa complexed in NOTA) [[^natGa]AJ647]
koff [2]: 0.0101 s⁻¹ | koff [3]: 0.0106 s⁻¹

{NOTA-PEG12′}-CP[Nal]DCM[hArg][dD]WSTP[Hyp]WC-NH2 (linker 1-5-15 via TATA) [AJ647]
IC50 [4]: 35 nM
